One assay deals with Centauréa cýanus. The experiment in a line: TLC plant biomarker pattern after herbicide spraying (greenhouse). The class given is in vivo.
The next assay concerns all tested plants. The experiment in a line: Most frequent TLC biomarker pattern of all tested plants. As to conditions: stability experiments. The assay is classed as in vivo. From the text:
By th term “standard biomarker pattern” is m ant a patternd of the composition of compounds present in a plant after exposure to known stress factors. According to th invention th biomarker pattern of the unknown compounds, i.e. the above described biomarker pattern, is correlated to a standard biomarker pattern, also referred to as a “most frequent pattern”. In order to interpret the biomarker patterns of test material that has been exposed to unknown stress factors, it is a prerequisite to provide standard biomarker patterns, i.e. most frequent patterns. By the latter is meant the same type of biomarker pattern obtained after exposure to a stress factor in more than 50% of the cases of exposure, such as 60%, for example 70%, such as 80%, for example 90%. The biomarker patterns of test material that has been exposed to unknown stress factors may then be correlated to standard biomarker patterns. The standard biomarker pattern may be obtained for one particular stress factor or for a combination of at least two different stress factors.
The study was performed in greenhouse between August and December 1998 for all species. Degree days (=(Present temperature in ° C.-5° C.)×amount of days) were used as time scale. […] Before the harvest, the plants were evaluated for visual effects using the rating chart described in Table 1 (Hamit et al., 1977). […]

The subject of the next assay is tobacco cell cultures. As to conditions: two cell lines, in the presence of glyphosate; cited from earlier work.

For `O=C(O)CNCP(=O)(O)O` [Glyphosate], the “Min. of label dose of herbicide with effect” value was 10% in the assay on Centauréa cýanus (TLC 1 (non-specific compounds)); 10% in the assay on Centauréa cýanus (TLC 6 (lipids and terpens)); 10% in the assay with Centauréa cýanus (TLC 7 (non-specific compounds)). Also, the “time after exposure at which phytochemical changes were seen” value with all tested plants (60 degree days) is recorded as 4 days. For the same molecule, the “time after exposure up to which a phytochemical pattern was present” value with all tested plants (480 degree days) is “up to 32 days”. Moreover, the “increase of levels of free shikimic acid” value with tobacco cell cultures is “more than 300 fold”.

The values above are taken from patent publication US20040029208A1, “Assay method and kit for testing biological material for exposure to stress using biomarkers” (priority 2000, published 2004).
